Converted amounts (≈) assume the structure as drawn.
Tests used:
[1] = target: T1, C-C chemokine receptor type 1 (Homo sapiens, UniProt P32246); experiment: Inhibition of CCL3 binding to C-C chemokine receptor type 1
T1 sequence (P32246 whole entry): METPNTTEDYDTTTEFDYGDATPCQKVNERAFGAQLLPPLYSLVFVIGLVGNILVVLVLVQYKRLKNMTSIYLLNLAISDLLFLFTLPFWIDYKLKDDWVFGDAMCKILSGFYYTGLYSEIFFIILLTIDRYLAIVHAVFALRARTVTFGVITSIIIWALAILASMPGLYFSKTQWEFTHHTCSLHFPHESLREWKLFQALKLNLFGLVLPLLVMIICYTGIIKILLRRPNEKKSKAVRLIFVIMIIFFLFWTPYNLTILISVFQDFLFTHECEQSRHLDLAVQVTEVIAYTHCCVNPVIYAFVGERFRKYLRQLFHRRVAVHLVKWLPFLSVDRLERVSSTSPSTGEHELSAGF

Homo sapiens = species on record: Homo sapiens; conditions: Liver, Microsome
Description: In vitro oxidative metabolic stability measured by the rate of drug consumption in human liver microsomes as intrinsic clearance values

[2] = Plasma clearance of compound was determined in dog
[3] = Elimination Half-life of compound was determined in dog; conditions: in vivo
[4] = Oral bioavailability in monkey; conditions: cercopithecidae, in vivo
[5] = Plasma clearance of compound was determined in monkey; conditions: cercopithecidae
[6] = Volume of distribution of compound was determined in monkey; conditions: cercopithecidae, in vivo
[7] = Volume of distribution of compound was determined in dog; conditions: in vivo
[8] = Aqueous solubility of compound was determined

Row | SMILES | IC50 [1] [nM] | CL (mL.min-1.kg-1) (Homo sapiens) | further results
1 | CC(C)(F)CC[C@H](C[C@H](O)[C@H](Cc1ccccc1)NC(=O)c1cnc2ccccc2n1)C(N)=O | 9 |  | 
2 | CC(C)(F)CCC(C[C@H](O)[C@H](Cc1ccccc1)NC(=O)c1cnc2ccccc2n1)C(=O)NN (stereo partly specified) | 7 | 32.7 | 
3 | NC(=O)C(C[C@H](O)[C@H](Cc1ccccc1)NC(=O)c1cnc2ccccc2n1)C1(O)CCC(F)(F)CC1 (stereo partly specified) | 56 | 6.4 | 
4 | CC(C)(F)CCC(C[C@H](O)[C@H](Cc1ccccc1)NC(=O)c1cnc2ccccc2n1)C(=O)NCc1ccccc1 (stereo partly specified) | 850 |  | 
5 | CC(C)(O)CC[C@H](C[C@H](O)[C@H](Cc1ccccc1)NC(=O)c1cnc2ccccc2n1)C(N)=O | 580 | 4.9 | 
6 | NC(=O)C(C[C@H](O)[C@H](Cc1ccccc1)NC(=O)c1cnc2ccccc2n1)C1CCC(F)(F)CC1 (stereo partly specified) | 20 |  | 
7 | CCNC(=O)C(CCC(C)(C)F)C[C@H](O)[C@H](Cc1ccccc1)NC(=O)c1cnc2ccccc2n1 (stereo partly specified) | 75 |  | 
8 | CC(C)(O)CCC(C[C@H](O)[C@H](Cc1ccccc1F)NC(=O)c1cnc2ccccc2n1)C(N)=O (stereo partly specified) | 52 | 16.5 | 
9 | CC(C)(F)CCC(C[C@H](O)[C@H](Cc1ccccc1)NC(=O)c1cnc2ccccc2n1)C(=O)N1CCCC1 (stereo partly specified) | 2320 |  | 
10 | NC(=O)C(C[C@H](O)[C@H](Cc1ccccc1)NC(=O)c1cnc2ccccc2n1)C1CCCCC1 (stereo partly specified) | 8 | 242 | 
11 | CC(C)(O)CCC(C[C@H](O)[C@H](Cc1ccc(F)cc1)NC(=O)c1cnc2ccccc2n1)C(N)=O (stereo partly specified) | > 25000 |  | 
12 | CN1CCN(C(=O)C(CCC(C)(C)F)C[C@H](O)[C@H](Cc2ccccc2)NC(=O)c2cnc3ccccc3n2)CC1 (stereo partly specified) | 5600 | 647 | 
13 | CC(C)(F)CCC(C[C@H](O)[C@H](Cc1ccccc1)NC(=O)c1cnc2ccccc2n1)C(=O)NO (stereo partly specified) | 27 |  | 
14 | O=C(N[C@@H](Cc1ccccc1)[C@@H](O)CC(C(=O)NO)C1CCC(F)(F)CC1)c1cnc2ccccc2n1 (stereo partly specified) | 7 | 6.1 | clearance [2]: 38 mL/min/kg; half-life [3]: 30 min; bioavailability [4]: < 1.1%; clearance [5]: 33 mL/min/kg; Vd [6]: 1.8 L/kg; Vd [7]: 1.3 L/kg; solubility [8]: 12 µg/mL (≈ 23.4 µM)
15 | NC(=O)C(C[C@H](O)[C@H](Cc1ccccc1)NC(=O)c1cnc2ccccc2n1)C1CCOCC1 (stereo partly specified) | 3460 |  | 
16 | NC(=O)C(C[C@H](O)[C@H](Cc1ccccc1)NC(=O)c1cnc2ccccc2n1)C1(O)CCCCC1 (stereo partly specified) | 54 | 47.7 | 
